Laboratory results as given in patent US9181259B2 (LEO PHARMA A/S, priority 2012, dated 2015).

Assays:
[1] = Hepatic intrinsic clearance following incubation in human liver microsomes; type: in vitro ADME; settings: NADPH regenerating system, 0-30 min, 37 °C
Procedure: Hepatic Extraction Ratio from Hepatic Intrinsic Clearance Following Incubation in Human Liver Microsomes
The general procedure consists of an automated incubation system and LC-MS/MS analysis with human liver microsomes. Human liver microsomes are thawed rapidly in a waterbath at 37° C. and kept on ice until use. The human liver microsomes are diluted with 50 mM potassium phosphate buffer pH 7.4 to a protein concentration of 0.55 mg/mL. Test compounds and positive controls (Verapamil and Dextromethorphan, positive controls for CYP3A4 for CYP2D6 isoforms, respectively) are dissolved in methanol (or other appropriate solvent, if necessary) in order to obtain a 5 mM solution which is further diluted to the concentration of 50 μM. The stock solutions are prepared immediately before the test.
5 μL of 50 μM test compounds and controls are added to 445 μL-of the 0.55 mg/mL microsomes solution and the incubation mixture are pre-warmed at 37° C. for 5 minutes.
The incubation reactions are initiated by adding 50 μL of pre-warmed NADPH regenerating system to the incubation mixtures. 50 μL-aliquots will be taken from the incubation mixtures at: 0, 3, 6, 9, 15 and 30 minutes and the reactions are stopped by adding 100 μL of ACN containing Rolipram, used as generic Internal Standard (1S). Samples are then diluted with 120 μL of Milli-Q water and centrifuged at 3000 rpm for 10 minutes, prior the LC-MS/MS analysis.
The integrated peak areas for test compounds at the selected time points are divided by the respective peak areas of the IS and the percent of parent remaining is calculated by normalizing the peak area ratio of parent to IS at 0 min. Observed rate constant (kobs) for parent degradation is calculated by determining the slope of the line of the graph of the natural log of percentage parent remaining versus time of incubation. From the rate of depletion (min-1) and volume of the incubation (mL), clearance is estimated. This is scaled for the protein in the incubation relative to that in the intact liver, for all species (mL/min/g liver).
Values for the Human in vitro Clint are expressed as mL/min/g liver.
Assuming a liver weight of 25.7 g/kg and a liver blood flow of 20.7 mL/min/kg, the hepatic extraction ratio, Eh, can be derived from the Human in vitro Clint:
E.g. a Human in vitro Clint of 2.4 mL/min/g liver corresponds to a hepatic extraction ratio of 75%.
Some compounds of the present invention were tested according to example 121.

NK1 receptor = target: T1, NK1 receptor (Homo sapiens, UniProt P25103); experiment: NK1 receptor mediated intracellular [Ca2+] mobilization in U251 MG cells using FLIPR; type: cell-based; settings: antagonist potency against Substance P (EC80), normalized to 100 nM Aprepitant, read-out: U251MG (FLIPR pIC50) (converted)
T1 construct: Measurement of NK1 Receptor Mediated Intracellular [Ca^2+]; Mobilization in U251 MG Cells Using FLIPR; endogenous in cells; host or cells: U251 MG cells
T1 sequence (P25103 whole entry): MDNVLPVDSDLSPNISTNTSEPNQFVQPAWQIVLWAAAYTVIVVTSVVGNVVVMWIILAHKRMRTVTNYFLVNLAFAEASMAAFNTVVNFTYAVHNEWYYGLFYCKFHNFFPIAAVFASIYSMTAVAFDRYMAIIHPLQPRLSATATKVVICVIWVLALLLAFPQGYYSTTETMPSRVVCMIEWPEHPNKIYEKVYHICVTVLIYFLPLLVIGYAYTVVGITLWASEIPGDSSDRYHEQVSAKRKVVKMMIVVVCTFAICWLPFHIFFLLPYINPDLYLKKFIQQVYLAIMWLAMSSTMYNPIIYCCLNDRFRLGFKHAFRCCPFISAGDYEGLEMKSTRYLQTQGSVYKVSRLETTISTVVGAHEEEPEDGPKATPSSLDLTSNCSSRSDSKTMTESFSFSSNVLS
How it was run: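 Fluo-4-loaded U251 MG cells were preincubated with compound (0.5% DMSO final), with any agonist effect read for 5 min, then 10 min more at 37 °C before Substance P at EC80. Peak FLIPR fluorescence change was read, and IC50 came from a four-parameter fit as the midpoint between fitted top and bottom.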

SMILES | Human in vitro Clint (mL/min/g liver) [1] | IC50 (NK1 receptor)
Cc1ccccc1C1C2CC(CN3CCCC3)C(=O)N2CCN1C(=O)N(C)Cc1cc(C(F)(F)F)cc(C(F)(F)F)c1 (single isomer, unassigned) [Compound 30, N-{[3,5-bis(trifluoromethyl)phenyl]methyl}-N-methyl-1-(2-methylphenyl)-6-oxo-7-(pyrrolidin-1-ylmethyl)-octahydropyrrolo[1,2-a]piperazine-2-carboxamide] | 2.4 mL/min/g liver | 0.38 nM
Cc1ccccc1[C@H]1[C@@H]2CC3(CCOCC3)C(=O)N2CCN1C(=O)N(C)[C@H](C)c1cc(C(F)(F)F)cc(C(F)(F)F)c1 [Compound 100, (1′S,8a′S)-N-((R)-1-(3,5-bis(trifluoromethyl)phenyl)ethyl)-N-methyl-6′-oxo-1′-o-tolyloctahydro-1′H-spiro[pyran-4,7′-pyrrolo[1,2-a]pyrazine]-2′(6′H)-carboxamide] | 3.0 mL/min/g liver | 0.126 nM
Cc1ccccc1C1C2CC(CCO)(CCO)CN2CCN1C(=O)N(C)Cc1cc(C(F)(F)F)cc(C(F)(F)F)c1 (single isomer, unassigned) [Compound 66, N-{[3,5-bis(trifluoromethyl)phenyl]methyl}-7,7-bis(2-hydroxyethyl)-N-methyl-1-(2-methylphenyl)-octahydropyrrolo[1,2-a]piperazine-2-carboxamide] | 4.2 mL/min/g liver | 0.0794 nM
Cc1ccccc1C1C2CC3(CCN(C)CC3)C(=O)N2CCN1C(=O)N(C)Cc1cc(C(F)(F)F)cc(C(F)(F)F)c1 (single isomer, unassigned) [Compound 47, N-{[3,5-bis(trifluoromethyl)phenyl]methyl}-N,1-dimethyl-4′-(2-methylphenyl)-1′-oxo-hexahydro-1′H-spiro[piperidine-4,2′-pyrrolo[1,2-a]piperazine]-5′-carboxamide] | 0.4 mL/min/g liver | 0.0933 nM
Cc1cc([C@@H](C)N(C)C(=O)N2CCN3C(=O)C(CO)C[C@H]3[C@@H]2c2ccccc2C)cc(C(F)(F)F)c1 (stereo partly drawn) [Compound 102, (1S,8aS)-7-(hydroxymethyl)-N-methyl-N-((R)-1-(3-methyl-5-(trifluoromethyl)phenyl)ethyl)-6-oxo-1-o-tolylhexahydropyrrolo[1,2-a]pyrazine-2(1H)-carboxamide] | 5.6 mL/min/g liver | 0.214 nM
Cc1cc([C@@H](C)N(C)C(=O)N2CCN3C(=O)C(CO)(CO)C[C@H]3[C@@H]2c2ccccc2C)cc(C(F)(F)F)c1 [Compound 103, (1S,8aS)-7,7-bis(hydroxymethyl)-N-methyl-N-((R)-1-(3-methyl-5-(trifluoromethyl)phenyl)ethyl)-6-oxo-1-o-tolylhexahydropyrrolo[1,2-a]pyrazine-2(1H)-carboxamide] | 4.8 mL/min/g liver | 0.0794 nM
Cc1ccccc1C1C2CC(CN3CCOCC3)C(=O)N2CCN1C(=O)N(C)Cc1cc(C(F)(F)F)cc(C(F)(F)F)c1 (single isomer, unassigned) [Compound 50] | 2.9 mL/min/g liver | 0.224 nM
Cc1cc([C@@H](C)N(C)C(=O)N2CCN3C(=O)CC[C@H]3[C@@H]2c2ccccc2C)cc(C(F)(F)F)c1 [Compound 107, (1S,8aS)-N-methyl-N-((R)-1-(3-methyl-5-(trifluoromethyl)phenyl)ethyl)-6-oxo-1-o-tolylhexahydropyrrolo[1,2-a]pyrazine-2(1H)-carboxamide] | 9.2 mL/min/g liver | 0.107 nM
Cc1ccccc1C1C2CC(CN3CCOCC3)C(=O)N2CCN1C(=O)N(C)Cc1cc(C(F)(F)F)cc(C(F)(F)F)c1 (single isomer, unassigned) [Compound 41] | 2.9 mL/min/g liver | 0.224 nM
Cc1ccccc1C1C2CC(C)(C(=O)N(C)C)C(=O)N2CCN1C(=O)N(C)Cc1cc(C(F)(F)F)cc(C(F)(F)F)c1 (single isomer, unassigned) [Compound 26, 2-N-{[3,5-bis(trifluoromethyl)phenyl]methyl}-2-N,7-N,7-N,7-tetramethyl-1-(2-methylphenyl)-6-oxo-octahydropyrrolo[1,2-a]piperazine-2,7-dicarboxamide] | 1.0 mL/min/g liver | 0.661 nM

Next, values leading:

Human in vitro Clint (mL/min/g liver) [1] | IC50 (NK1 receptor) | SMILES
7.8 mL/min/g liver | 0.132 nM | CCC(c1cc(C(F)(F)F)cc(C(F)(F)F)c1)N(C)C(=O)N1CCN2C(=O)C(CCO)(CCO)C[C@H]2[C@@H]1c1ccccc1C (stereo partly drawn) [Compound 83, (1S,8aS)-N-(1-(3,5-bis(trifluoromethyl)phenyl)propyl)-7,7-bis(2-hydroxyethyl)-N-methyl-6-oxo-1-o-tolylhexahydropyrrolo[1,2-a]pyrazine-2(1H)-carboxamide]
4.0 mL/min/g liver | 0.117 nM | Cc1ccccc1[C@H]1[C@@H]2CC(CCO)(CCO)C(=O)N2CCN1C(=O)N(C)[C@H](C)c1cc(C(F)F)cc(C(F)(F)F)c1 [Compound 98, (1S,8aS)-N-((R)-1-(3-(difluoromethyl)-5-(trifluoromethyl)phenyl)ethyl)-7,7-bis(2-hydroxyethyl)-N-methyl-6-oxo-1-o-tolylhexahydropyrrolo[1,2-a]pyrazine-2(1H)-carboxamide]
15 mL/min/g liver | 0.0631 nM | Cc1cc(CN(C)C(=O)N2CCN3C(=O)C(CCO)(CCO)C[C@H]3[C@@H]2c2ccccc2C)cc(C(F)(F)F)c1 [Compound 77, (1S,8aS)-7,7-bis(2-hydroxyethyl)-N-methyl-N-(3-methyl-5-(trifluoromethyl)benzyl)-6-oxo-1-o-tolylhexahydropyrrolo[1,2-a]pyrazine-2(1H)-carboxamide]
2.8 mL/min/g liver | 0.129 nM | Cc1ccccc1[C@H]1[C@@H]2CC(CCO)(CCO)C(=O)N2CCN1C(=O)N(C)[C@H](CO)c1cc(C(F)(F)F)cc(C(F)(F)F)c1 [Compound 86, (1S,8aS)-N-((S)-1-(3,5-bis(trifluoromethyl)phenyl)-2-hydroxyethyl)-7,7-bis(2-hydroxyethyl)-N-methyl-6-oxo-1-o-tolylhexahydropyrrolo[1,2-a]pyrazine-2(1H)-carboxamide]
3.4 mL/min/g liver | 0.0501 nM | Cc1ccccc1[C@H]1[C@@H]2CC(CCO)(CCO)C(=O)N2CCN1C(=O)N(C)[C@H](CO)c1cc(F)cc(C(F)(F)F)c1 [Compound 94, (1S,8aS)-N-((S)-1-(3-fluoro-5-(trifluoromethyl)phenyl)-2-hydroxyethyl)-7,7-bis(2-hydroxyethyl)-N-methyl-6-oxo-1-o-tolylhexahydropyrrolo[1,2-a]pyrazine-2(1H)-carboxamide]
10 mL/min/g liver | 0.0794 nM | Cc1ccccc1[C@H]1[C@@H]2CC(CCO)(CCO)C(=O)N2CCN1C(=O)N(C)[C@H](C)c1cc(F)cc(C(F)(F)F)c1 [Compound 93, (1S,8aS)-N-((R)-1-(3-fluoro-5-(trifluoromethyl)phenyl)ethyl)-7,7-bis(2-hydroxyethyl)-N-methyl-6-oxo-1-o-tolylhexahydropyrrolo[1,2-a]pyrazine-2(1H)-carboxamide]
